Experimental data published in article PMC4500398, “All-Purpose Containers? Lipid-Binding Protein – Drug Interactions” (PLoS ONE, 2015).

Key:
[1] = biological target: T1, c-FABPL (fatty acid-binding protein from G. gallus liver) (Gallus gallus, UniProt P80226); assay: […]-NMR titration (n.O.e., T1) and competition with cholate; set-up: gene FABP1; purified from chicken liver, delipidated
T1 sequence (P80226 2-126): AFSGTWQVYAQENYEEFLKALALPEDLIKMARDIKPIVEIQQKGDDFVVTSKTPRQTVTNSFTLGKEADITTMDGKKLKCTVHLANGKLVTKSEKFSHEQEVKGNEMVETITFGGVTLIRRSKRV

[2] = biological target: T1, c-FABPL (fatty acid-binding protein from G. gallus liver); assay: […]-NMR (T1, n.O.e.) and displacement by cholate; set-up: gene FABP1; purified from chicken liver, delipidated
[3] = biological target: T1, c-FABPL (fatty acid-binding protein from G. gallus liver); assay: […]-NMR titration with […]-enriched ligand; […]-NMR competition; set-up: gene FABP1; apo protein, purified from chicken liver
[4] = biological target: T1, c-FABPL (fatty acid-binding protein from G. gallus liver); assay: […]-NMR titration with […]-enriched ligand; set-up: gene FABP1; apo protein, purified from chicken liver

SMILES: CC(C)n1c(/C=C/[C@@H](O)C[C@@H](O)CC(=O)O)c(-c2ccc(F)cc2)c2ccccc21 (relative stereo) [compound 14, fluvastatin]
- 19F-NMR titration (n.O.e., T1) and competition with cholate [1]: Symmetric competition experiments between fluvastatin and cholate

SMILES: CCCCCCCCCCCCCCC(F)C(=O)O (stereo not shown) [16–17, 2-fluoropalmitate]
- 19F-NMR (T1, n.O.e.) and displacement by cholate [2]: only using a tenfold excess of cholate the ligand was completely removed from the protein

SMILES: C[C@H](CCC(=O)O)[C@H]1CC[C@H]2[C@@H]3[C@H](O)C[C@@H]4C[C@H](O)CC[C@]4(C)[C@H]3C[C@H](O)[C@]12C [compound 7, cholate]
- 13C-NMR titration with 13C-enriched ligand; 19F-NMR competition [3]: The titration indicates two sites of comparable affinity for cholate, and of different affinity for glycocholate

SMILES: C[C@H](CCC(=O)NCC(=O)O)[C@H]1CC[C@H]2[C@@H]3[C@H](O)C[C@@H]4C[C@H](O)CC[C@]4(C)[C@H]3C[C@H](O)[C@]12C [glycocholate]
- 13C-NMR titration with 13C-enriched ligand [4]: The titration indicates two sites of comparable affinity for cholate, and of different affinity for glycocholate
